According to patent publication US20160108039A1, “TRIAZOLOPYRIDINES AS THROMBIN INHIBITORS FOR THE TREATMENT OF THROMBOEMBOLIC DISEASES” (BAYER PHARMA AKTIENGESELLSCHAFT, priority 2013, published 2016):

How the values were obtained:
thrombin [1] = biological target: T1, thrombin (Homo sapiens, UniProt P00734); test: Thrombin-inhibitory activity in plasma samples (ecarin-activated); assay type: biochemical; details: citrate plasma, ecarin activation, fluorogenic thrombin substrate; read at about 70% of maximum signal (about 12 min); in some cases means
Method: To determine the inhibition of thrombin in plasma samples, plasma prothrombinase is activated by ecarin. Thrombin activity and/or its inhibition by potential inhibitors is/are then measured fluorescently by addition of a substrate.
The substances to be tested are dissolved in various concentrations in dimethyl sulphoxide and diluted with water. In white 96-well flat-bottomed plates, 20 μl of substance dilution are mixed with 20 μl of ecarin solution (ecarin reagent, from Sigma E-0504, final concentration 20 mU per reaction) in Ca buffer (200 mM Hepes+560 mM sodium chloride+10 mM calcium chloride+0.4% PEG) or with 20 μl of Ca buffer (as unstimulated control). Furthermore, 20 μl of fluorogenic thrombin substrate (from Bachem 1-1120, final concentration 50 μmol/l) and 20 μl of citrate plasma (from Octapharma) are added, and the mixture is homogenized well. The plate is measured in a SpectraFluorplus Reader using a 360 nm excitation filter and a 465 nm emission filter every minute over 20 minutes. […] Representative activity data from this test are given in Table 2 below (in some cases as means of individual determinations): […]

thrombin [2] = biological target: T1, thrombin; test: Measurement of the thrombin inhibition in buffer; assay type: biochemical; details: human thrombin 0.06 nmol/l in Tris buffer pH 7.4, 22° C., substrate Boc-Asp(OBzl)-Pro-Arg-AMC; in some cases means of individual determinations
Method: To determine the thrombin inhibition of the substances listed above, a biochemical test system is constructed in which the conversion of a thrombin substrate is used for determining the enzymatic activity of human thrombin. Here, thrombin cleaves aminomethylcoumarin, which is measured fluorescently, from the peptic substrate. The determinations are carried out in microtitre plates.
Substances to be tested are dissolved in various concentrations in dimethyl sulphoxide and incubated for 15 min with human thrombin (0.06 nmol/l dissolved in 50 mmol/l of Tris buffer [C,C,C-tris(hydroxymethyl)aminomethane], 100 mmol/l of sodium chloride, 0.1% BSA [bovine serum albumin], pH 7.4) at 22° C. The substrate (5 μmol/l Boc-Asp(OBzl)-Pro-Arg-AMC from Bachem) is then added. After 30 min of incubation, the sample is excited at a wavelength of 360 nm and the emission is measured at 460 nm. The measured emissions of the test mixtures with test substance are compared to the control mixtures without test substance (only dimethyl sulphoxide instead of test substance in dimethyl sulphoxide) and IC50 values are calculated from the concentration/activity relationships. Representative activity data from this test are given in Table 1 below (in some cases as means of individual determinations): […]

SMILES	IC50 (thrombin [1])	IC50 (thrombin [2])
COc1cc(C(=O)N2CC(C)OCC2C2CC(O)C2)cn2nc(NCc3cccc(Cl)c3)nc12 (single isomer, unassigned) [Example 3, {2-[(3-Chlorobenzyl)amino]-8-methoxy[1,2,4]triazolo[1,5-a]pyridin-6-yl}[5-(3-hydroxycyclobutyl)-2-methylmorpholin-4-yl]methanone]	0.07 µM	0.07 µM
COc1cc(C(=O)N2CC(C)(C)OCC2(C)CO)cn2nc(NCc3cccc(Cl)c3)nc12 (single isomer, unassigned) [Example 9, {2-[(3-Chlorobenzyl)amino]-8-methoxy[1,2,4]triazolo[1,5-a]pyridin-6-yl}[5-(hydroxymethyl)-2,2,5-trimethylmorpholin-4-yl]methanone]	0.079 µM	0.055 µM
COc1cc(C(=O)N2CC(C)(C)OCC2(C)CO)cn2nc(NCc3cccc(Cl)c3)nc12 (single isomer, unassigned) [Example 10, {2-[(3-Chlorobenzyl)amino]-8-methoxy[1,2,4]triazolo[1,5-a]pyridin-6-yl}[5-(hydroxymethyl)-2,2,5-trimethylmorpholin-4-yl]methanone]	0.041 µM	0.039 µM
COc1cc(C(=O)N2CC(C)(C)OCC2CF)cn2nc(NCc3cccc(Cl)c3)nc12 (single isomer, unassigned) [Example 14, {2-[(3-Chlorobenzyl)amino]-8-methoxy[1,2,4]triazolo[1,5-a]pyridin-6-yl}[5-(fluoromethyl)-2,2-dimethylmorpholin-4-yl]methanone]	0.057 µM	0.024 µM
COc1cc(C(=O)N2CC(C)OCC2CCO)cn2nc(NCc3cccc(Cl)c3)nc12 (single isomer, unassigned) [Example 16, {2-[(3-Chlorobenzyl)amino]-8-methoxy[1,2,4]triazolo[1,5-a]pyridin-6-yl}[5-(2-hydroxyethyl)-2-methylmorpholin-4-yl]methanone]	0.077 µM	0.052 µM
COc1cc(C(=O)N2CC(C)OCC2CCO)cn2nc(NCc3cccc(Cl)c3)nc12 (single isomer, unassigned) [Example 17, {2-[(3-Chlorobenzyl)amino]-8-methoxy[1,2,4]triazolo[1,5-a]pyridin-6-yl}[5-(2-hydroxyethyl)-2-methylmorpholin-4-yl]methanone]	0.119 µM	0.095 µM
COc1cc(C(=O)N2CC(C)OCC2CCO)cn2nc(NC(CF)c3cccc(Cl)c3)nc12 (single isomer, unassigned) [Example 18, (2-{[1-(3-Chlorophenyl)-2-fluoroethyl]amino}-8-methoxy[1,2,4]triazolo[1,5-a]pyridin-6-yl) [5-(2-hydroxyethyl)-2-methylmorpholin-4-yl]methanone]	0.015 µM	0.027 µM
COc1cc(C(=O)N2CC(C)OCC23CC(O)C3)cn2nc(NCc3cccc(Cl)c3)nc12 (single isomer, unassigned) [Example 20, {2-[(3-Chlorobenzyl)amino]-8-methoxy[1,2,4]triazolo[1,5-a]pyridin-6-yl}[(cis)-2-hydroxy-7-methyl-8-oxa-5-azaspiro[3.5]non-5-yl]methanone]	0.07 µM	0.035 µM
COc1cc(C(=O)N2CC(C)OCC23CC(O)C3)cn2nc(NCc3cccc(Cl)c3)nc12 (single isomer, unassigned) [Example 21, {2-[(3-Chlorobenzyl)amino]-8-methoxy[1,2,4]triazolo[1,5-a]pyridin-6-yl}[(trans)-2-hydroxy-7-methyl-8-oxa-5-azaspiro[3.5]non-5-yl]methanone]	0.067 µM	0.043 µM
COc1cc(C(=O)N2CC(C)OCC23CC(O)C3)cn2nc(NC(CF)c3cccc(Cl)c3)nc12 (single isomer, unassigned) [Example 22, (2-{[1-(3-Chlorophenyl)-2-fluoroethyl]amino}-8-methoxy[1,2,4]triazolo[1,5-a]pyridin-6-yl)[(cis)-2-hydroxy-7-methyl-8-oxa-5-azaspiro[3.5]non-5-yl]methanone]	0.086 µM	0.026 µM
COc1cc(C(=O)N2CC(C)OCC23CC(O)C3)cn2nc(NC(CF)c3cccc(Cl)c3)nc12 (single isomer, unassigned) [Example 24, (2-{[1-(3-Chlorophenyl)-2-fluoroethyl]amino}-8-methoxy[1,2,4]triazolo[1,5-a]pyridin-6-yl) [(trans)-2-hydroxy-7-methyl-8-oxa-5-azaspiro[3.5]non-5-yl]methanone]	0.019 µM	0.0099 µM
COc1cc(C(=O)N2CC(C)OCC23CC(O)C3)cn2nc(NC(CF)c3cccc(Cl)c3)nc12 (single isomer, unassigned) [Example 25, (2-{[1-(3-Chlorophenyl)-2-fluoroethyl]amino}-8-methoxy[1,2,4]triazolo[1,5-a]pyridin-6-yl) [(trans)-2-hydroxy-7-methyl-8-oxa-5-azaspiro[3.5]non-5-yl]methanone]	0.055 µM	0.028 µM
COc1cc(C(=O)N2CC(C)OCC2(C)CO)cn2nc(NCc3cccc(Cl)c3)nc12 (single isomer, unassigned) [Example 29, {2-[(3-Chlorobenzyl)amino]-8-methoxy[1,2,4]triazolo[1,5-a]pyridin-6-yl}[5-(hydroxymethyl)-2,5-dimethylmorpholin-4-yl]methanone]	0.067 µM	0.054 µM
COc1cc(C(=O)N2CC(C)OCC2(C)CO)cn2nc(NCc3cccc(Cl)c3)nc12 (single isomer, unassigned) [Example 30, {2-[(3-Chlorobenzyl)amino]-8-methoxy[1,2,4]triazolo[1,5-a]pyridin-6-yl}[5-(hydroxymethyl)-2,5-dimethylmorpholin-4-yl]methanone]	0.051 µM	0.045 µM
COc1cc(C(=O)N2CC(C)(CC(C)O)OCC2(C)C)cn2nc(NCc3cccc(Cl)c3)nc12 (single isomer, unassigned) [Example 35, {2-[(3-Chlorobenzyl)amino]-8-methoxy[1,2,4]triazolo[1,5-a]pyridin-6-yl}[2-(2-hydroxypropyl)-2,5,5-trimethylmorpholin-4-yl]methanone]	0.0087 µM	0.0024 µM

Further compounds by falling IC50 (thrombin [1]), results first:

IC50 (thrombin [1])	IC50 (thrombin [2])	SMILES
0.056 µM	0.062 µM	COc1cc(C(=O)N2CC(C)OCC2(C)C)cn2nc(NCc3cccc(Cl)c3)nc12 (single isomer, unassigned) [Example 27]
0.034 µM	0.029 µM	COc1cc(C(=O)N2CC(C)OCC23CC(O)C3)cn2nc(NC(CF)c3cccc(Cl)c3)nc12 (single isomer, unassigned) [Example 23, (2-{[1-(3-Chlorophenyl)-2-fluoroethyl]amino}-8-methoxy[1,2,4]triazolo[1,5-a]pyridin-6-yl)[(cis)-2-hydroxy-7-methyl-8-oxa-5-azaspiro[3.5]non-5-yl]methanone]
0.025 µM	0.0087 µM	COc1cc(C(=O)N2CC(C)(CCO)OC[C@H]2C)cn2nc(NCc3cccc(Cl)c3)nc12 (single isomer, unassigned) [Example 6]
0.023 µM	0.0094 µM	COc1cc(C(=O)N2CC(C)OCC2C2CC(O)C2)cn2nc(NCc3cccc(Cl)c3)nc12 (single isomer, unassigned) [Example 4, {2-[(3-Chlorobenzyl)amino]-8-methoxy[1,2,4]triazolo[1,5-a]pyridin-6-yl}[5-(3-hydroxycyclobutyl)-2-methylmorpholin-4-yl]methanone]
0.019 µM	0.0039 µM	COc1cc(C(=O)N2CC(C)(CC(C)O)OCC2(C)C)cn2nc(NCc3cccc(Cl)c3)nc12 (single isomer, unassigned) [Example 34, {2-[(3-Chlorobenzyl)amino]-8-methoxy[1,2,4]triazolo[1,5-a]pyridin-6-yl}[2-(2-hydroxypropyl)-2,5,5-trimethylmorpholin-4-yl]methanone]
0.011 µM	0.0045 µM	COc1cc(C(=O)N2CC(C)(CCO)OCC2(C)C)cn2nc(NCc3cccc(Cl)c3)nc12 (single isomer, unassigned) [Example 33, {2-[(3-Chlorobenzyl)amino]-8-methoxy[1,2,4]triazolo[1,5-a]pyridin-6-yl}[2-(2-hydroxyethyl)-2,5,5-trimethylmorpholin-4-yl]methanone]
0.01 µM	0.011 µM	COc1cc(C(=O)N2CC(C)OCC2CCO)cn2nc(NC(CF)c3cccc(Cl)c3)nc12 (single isomer, unassigned) [Example 19, (2-{[1-(3-Chlorophenyl)-2-fluoroethyl]amino}-8-methoxy[1,2,4]triazolo[1,5-a]pyridin-6-yl) [5-(2-hydroxyethyl)-2-methylmorpholin-4-yl]methanone]
